In patent publication US9029384B2, “Phosphatidylinositol 3-kinase inhibitors” (Gilead Calistoga LLC, priority 2012, dated 2015):

Key:
[1] = molecular target: T1, PI3Kδ (Homo sapiens, UniProt O00329); assay: Enzymatic activity of PI3K isoforms, TR-FRET assay (PIP3 formation); assay type: biochemical; settings: PI3Kδ; TR-FRET, 2×Km ATP, 10 μM PIP2; read-out: IC50
T1 construct: made in house
Source text: Enzymatic Activity of PI3K Isoforms
The TR-FRET assay was used to monitor formation of the product 3,4,5-inositol triphosphate molecule (PIP3) as it competed with fluorescently labeled PIP3 for binding to the GRP-1 pleckstrin homology domain protein. An increase in […] product results in a decrease in TR-FRET signal as the labeled fluorophore is displaced from the GRP-1 protein binding site.
Class I PI3K isoforms were expressed and purified as heterodimeric recombinant proteins. All assay reagents and buffers for the TR-FRET assay were purchased from Millipore. […] After an assay reaction time of 30 minutes at 25° C., reactions were terminated with a final concentration of 10 mM EDTA, 10 nM labeled-PIP3, and 35 nM Europium labeled GRP-1 detector protein before reading TR-FRET on an Envision plate reader (Ex: 340 nm; Em: 615/665 nm; 100 μs delay and 500 μs read window).
Data are normalized based on a positive (1 uM wortmanin) and negative (DMSO) controls. The α, β, δ, and γ IC50 values were calculated from the fit of the dose-response curves to a four-parameter equation. IC50 are reported in units of nM.
IC50 values were obtained for all PI3K isoforms (α, β, δ, and γ), and Table 2 summarizes the IC50 data collected for PI3Kδ in this Example B1.

[2] = system: basophils; assay: Basophil activation in human whole blood (Flow2 CAST kit, CD63 positive cells); assay type: cell-based; settings: Homo sapiens, basophils activated with anti-FcεRI mAb or fMLP, geometric mean
Experimental: Effect on basophil activation was measured in human whole blood using the Flow2 CAST® kit (Buhlmann Laboratories AG, Baselstrasse, Switzerland) following the protocol provided by the manufacturer with minor modifications. Human whole blood was collected into K2-EDTA venipuncture tubes. Whole blood samples were treated with either DMSO (0.3% final) or a serial dilution of compounds in DMSO for 60 minutes at 37° C. Basophils were then activated either with anti-FcεRI mAb or with fMLP. To activate basophils using the anti-FcεRI mAb; 50 μl of whole blood was mixed with 110 μl of stimulation buffer (B-BAT-STB) and 20 μl of anti-FcεRI (B-BAT-STCON). To activate basophils with fMLP; 50 μl of whole blood was mixed with 80 μl of stimulation buffer (B-BAT-STB) and 50 μl of fMLP (B-CCR-FMLP). Stimulation buffer was used as a negative control. 20 μl of the staining reagent (combination of anti-human CD63-FITC and anti-human CCR3-PE mAbs) was then added to each tube. […] Subsequently, erythrocytes were lysed and fixed by the addition of 2 ml of lysing solution (B-BAT-LYR) for 10 min at room temperature. Cells were pelleted by centrifugation at 1200 rpm for 10 min at room temperature in a swing-out rotor. Supernatant was aspirated and cell pellet resuspended in 400 μl of wash buffer. Flow cytometric analysis of the basophil activation was performed on a FC500MPL flow cytometer (Beckman Coulter Inc., Fullerton, Calif.). CCR3-staining and side scatter were applied to gate at least 200 basophils that expressed a high density of CCR3. The percent CD63 positive cells within the gated basophil population were determined in different treatment groups and normalized to the vehicle control (0.3% DMSO) with anti-FcεRI mAb of fMLP stimulus as 100%. Final compound concentration was adjusted to correct for dilution effect of added reagents. The EC50 values were calculated from the analysis of the dose-response curves to a four-parameter equation. All EC50 values represent geometric mean values and are reported in units of nM.

T1 sequence (O00329 whole entry, canonical isoform): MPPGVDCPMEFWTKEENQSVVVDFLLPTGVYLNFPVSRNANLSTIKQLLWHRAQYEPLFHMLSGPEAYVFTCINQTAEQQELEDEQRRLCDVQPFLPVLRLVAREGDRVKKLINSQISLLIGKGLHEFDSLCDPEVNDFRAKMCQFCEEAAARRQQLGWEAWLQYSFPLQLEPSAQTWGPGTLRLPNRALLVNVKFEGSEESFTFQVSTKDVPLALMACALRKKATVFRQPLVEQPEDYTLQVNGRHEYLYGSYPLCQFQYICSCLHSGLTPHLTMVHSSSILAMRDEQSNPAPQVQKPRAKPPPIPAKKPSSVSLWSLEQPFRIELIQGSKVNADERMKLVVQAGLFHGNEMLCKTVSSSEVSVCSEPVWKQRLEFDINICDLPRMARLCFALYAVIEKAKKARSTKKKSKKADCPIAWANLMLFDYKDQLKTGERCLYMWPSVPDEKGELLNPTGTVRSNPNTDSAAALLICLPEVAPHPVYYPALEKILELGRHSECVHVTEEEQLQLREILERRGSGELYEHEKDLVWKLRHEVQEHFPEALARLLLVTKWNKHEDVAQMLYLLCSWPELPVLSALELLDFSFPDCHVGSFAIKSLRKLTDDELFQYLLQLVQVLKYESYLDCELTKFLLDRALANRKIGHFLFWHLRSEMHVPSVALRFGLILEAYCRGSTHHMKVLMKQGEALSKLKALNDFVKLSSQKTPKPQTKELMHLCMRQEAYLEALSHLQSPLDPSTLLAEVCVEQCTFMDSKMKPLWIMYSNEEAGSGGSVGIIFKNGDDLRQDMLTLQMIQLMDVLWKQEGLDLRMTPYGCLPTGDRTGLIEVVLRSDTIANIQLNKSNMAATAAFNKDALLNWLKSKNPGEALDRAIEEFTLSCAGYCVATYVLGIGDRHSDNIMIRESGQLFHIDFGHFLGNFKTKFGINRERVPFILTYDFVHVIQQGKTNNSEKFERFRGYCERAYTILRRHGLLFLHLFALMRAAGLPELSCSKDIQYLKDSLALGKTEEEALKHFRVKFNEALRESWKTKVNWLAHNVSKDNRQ
T1 sequence (P27986 whole entry partner, canonical isoform): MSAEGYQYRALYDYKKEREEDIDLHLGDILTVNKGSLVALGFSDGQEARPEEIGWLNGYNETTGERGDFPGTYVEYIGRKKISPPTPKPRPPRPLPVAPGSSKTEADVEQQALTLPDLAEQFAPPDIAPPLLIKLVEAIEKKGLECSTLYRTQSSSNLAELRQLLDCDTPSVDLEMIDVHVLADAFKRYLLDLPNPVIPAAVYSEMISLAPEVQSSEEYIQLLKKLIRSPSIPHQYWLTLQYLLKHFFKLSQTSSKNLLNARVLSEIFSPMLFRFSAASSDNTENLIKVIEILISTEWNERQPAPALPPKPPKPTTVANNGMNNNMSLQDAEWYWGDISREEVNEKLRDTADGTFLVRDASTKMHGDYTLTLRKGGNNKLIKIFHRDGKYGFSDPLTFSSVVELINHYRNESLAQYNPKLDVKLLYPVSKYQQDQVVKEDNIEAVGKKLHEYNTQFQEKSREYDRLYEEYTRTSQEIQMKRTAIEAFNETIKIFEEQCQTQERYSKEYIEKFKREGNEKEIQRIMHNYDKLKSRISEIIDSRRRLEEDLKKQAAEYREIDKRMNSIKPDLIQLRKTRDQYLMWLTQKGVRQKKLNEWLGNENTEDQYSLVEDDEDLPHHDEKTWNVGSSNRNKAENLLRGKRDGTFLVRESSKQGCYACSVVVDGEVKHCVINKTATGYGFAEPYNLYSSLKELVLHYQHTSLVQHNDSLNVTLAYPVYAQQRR

IC50 [1] [nM] | EC50 [2] [nM] | SMILES
1 to 10 | 1 to 10 | CC(Nc1nc(N)nc(N)c1C#N)c1nc2c(F)cccc2c(=O)n1-c1ccccc1 (single isomer, unassigned) [Compound 58a]
1 to 10 | 1 to 10 | CC(Nc1nc(N)nc(N)c1C#N)c1nc2cccc(C#N)c2c(=O)n1-c1cccc(F)c1 (single isomer, unassigned) [Compound 131a]
> 50 |  | CCC(Nc1nc(N)nc(N)c1C#N)c1nc2ccc(Cl)c(F)c2c(=O)n1-c1cc(F)cc(F)c1 (single isomer, unassigned) [Compound 86a]
10 to 50 |  | CC(Nc1nc(N)nc(N)c1C#N)c1nc2cccc(C#N)c2c(=O)n1-c1cc(F)cc(C(F)F)c1 (single isomer, unassigned) [Compound 138a]
> 50 |  | CC(Nc1nc(N)nc(N)c1C#N)c1nc2cccc(F)c2c(=O)n1-c1cc(Cl)cc(C(F)F)c1 (single isomer, unassigned) [Compound 114a]
> 50 |  | CC(Nc1nc(N)nc(N)c1C#N)c1nc2cccc(Cl)c2c(=O)n1-c1cc(C#N)cc(C#N)c1 (single isomer, unassigned) [Compound 87a]
10 to 50 |  | CCc1cccc2c(=O)n(-c3cc(F)cc(F)c3)c(C(C)Nc3nc(N)nc(N)c3C#N)nc12 (single isomer, unassigned) [Compound 103a]
10 to 50 |  | CCC(Nc1nc(N)nc(N)c1C#N)c1nc2cccc(F)c2c(=O)n1-c1cc(F)cc(C(F)F)c1 (single isomer, unassigned) [Compound 65a]
10 to 50 |  | CCC(Nc1nc(N)nc(N)c1C#N)c1nc2c(F)cc(F)cc2c(=O)n1-c1cc(F)cc(F)c1 (single isomer, unassigned) [Compound 69a]
> 50 |  | CC(Nc1nc(N)nc(N)c1C#N)c1nc2ccc(C#N)cc2c(=O)n1-c1ccccc1 (single isomer, unassigned) [Compound 159a]
> 50 |  | CC(Nc1nc(N)nc(N)c1C#N)c1nc2cccc(F)c2c(=O)n1-c1cc(C(F)F)cc(C(F)F)c1 (single isomer, unassigned) [Compound 118a]
10 to 50 |  | CCC(Nc1nc(N)nc(N)c1C#N)c1nc2cccc(F)c2c(=O)n1-c1cccc(C(F)(F)F)c1 (single isomer, unassigned) [Compound 46a]
1 to 10 |  | COc1cc(F)cc(-n2c(C(C)Nc3nc(N)nc(N)c3C#N)nc3cccc(Cl)c3c2=O)c1C (single isomer, unassigned) [Compound 110a-2]
> 50 |  | CC(Nc1nc(N)nc(N)c1C#N)c1nc2cccc(F)c2c(=O)n1-c1cc(C(F)(F)F)cc(C(F)(F)F)c1 (single isomer, unassigned) [Compound 88a]
> 50 |  | N#Cc1cccc(-n2c(CNc3nc(N)nc(N)c3C#N)nc3c(Cl)cccc3c2=O)c1 [Compound 84, 2,4-diamino-6-((8-chloro-3-(3-cyanophenyl)-4-oxo-3,4-dihydroquinazolin-2-yl)methylamino)pyrimidine-5-carbonitrile]
10 to 50 |  | Cc1cccc2c(=O)n(-c3cccc(C(F)(F)F)c3)c(C(C)Nc3nc(N)nc(N)c3C#N)nc12 (single isomer, unassigned) [Compound 39a]
> 50 |  | CC(Nc1nc(N)nc(N)c1C#N)c1nc2ccc(Cl)c(F)c2c(=O)n1-c1cc(F)cc(F)c1 (single isomer, unassigned) [Compound 85a]
> 50 |  | COc1cccc2c(=O)n(-c3cc(F)cc(F)c3)c(C(C)Nc3nc(N)nc(N)c3C#N)nc12 (single isomer, unassigned) [Compound 68a]
> 50 |  | N#Cc1c(N)nc(N)nc1NC(CC(F)(F)F)c1nc2cccc(Cl)c2c(=O)n1-c1cc(F)cc(F)c1 (single isomer, unassigned) [Compound 165a]
1 to 10 |  | Cc1c(-n2c(C(C)Nc3nc(N)nc(N)c3C#N)nc3cccc(Cl)c3c2=O)ccc(F)c1F (single isomer, unassigned) [Compound 204a-2]

IC50 [1] [nM] | EC50 [2] [nM] | SMILES
> 50 |  | N#Cc1c(N)nc(N)nc1NC(CC(F)(F)F)c1nc2ccc(F)cc2c(=O)n1-c1cc(F)cc(F)c1 (single isomer, unassigned) [Compound 133a]
> 50 |  | CC(Nc1nc(N)nc(N)c1S(C)(=O)=O)c1nc2cccc(Cl)c2c(=O)n1-c1cc(F)cc(F)c1 (single isomer, unassigned) [Compound 94a]
> 50 |  | CC(Nc1nc(N)nc(N)c1C#N)c1nc2cccc(C#N)c2c(=O)n1-c1cc(F)cc(C#N)c1 (single isomer, unassigned) [Compound 113a]
< 1 |  | CC(Nc1nc(N)nc(N)c1C#N)c1nc2cccc(Br)c2c(=O)n1-c1cccc(F)c1 (single isomer, unassigned) [Compound 130a]
10 to 50 |  | Cc1c(-n2c(C(C)Nc3nc(N)nc(N)c3C#N)nc3cccc(Cl)c3c2=O)ccc(F)c1F (single isomer, unassigned) [Compound 204a-1]
> 50 |  | N#Cc1c(N)nc(N)nc1NC(CC(F)(F)F)c1nc2ccc(F)cc2c(=O)n1-c1ccccc1 (single isomer, unassigned) [Compound 132a]
> 50 |  | CC(Nc1nc(N)nc(N)c1C#N)c1nc2cccc(C(=O)O)c2c(=O)n1-c1ccccc1 (single isomer, unassigned) [Compound 162a, 2-(1-((2,6-diamino-5-cyanopyrimidin-4-yl)amino)ethyl)-4-oxo-3-phenyl-3,4-dihydroquinazoline-5-carboxylic acid]
> 50 |  | N#Cc1c(N)nc(N)nc1NCc1nc2cc(F)c(F)cc2c(=O)n1-c1cc(F)cc(F)c1 [Compound 80, 2,4-diamino-6-((3-(3,5-difluorophenyl)-6,7-difluoro-4-oxo-3,4-dihydroquinazolin-2-yl)methylamino)pyrimidine-5-carbonitrile]
10 to 50 |  | CC(Nc1nc(N)nc(N)c1C#N)c1nc2c(C(F)F)cccc2c(=O)n1-c1cc(F)cc(F)c1 (single isomer, unassigned) [Compound 57a]
> 50 |  | CC(Nc1nc(N)nc(N)c1C#N)c1nc2cccc(F)c2c(=O)n1-c1cc(C(F)F)cc(C(F)F)c1 (single isomer, unassigned) [Compound 136a]
10 to 50 |  | COc1cccc(-n2c(C(C)Nc3nc(N)nc(N)c3C#N)nc3cccc(Cl)c3c2=O)c1C (single isomer, unassigned) [Compound 109a-1]
10 to 50 |  | Cc1ccc(F)c2c(=O)n(-c3cc(F)cc(C#N)c3)c(C(C)Nc3nc(N)nc(N)c3C#N)nc12 (single isomer, unassigned) [Compound 83a]
> 50 |  | CC(Nc1nc(N)nc(N)c1C#N)c1nc2cccc(F)c2c(=O)n1-c1cc(F)cc(C(F)(F)F)c1 (single isomer, unassigned) [Compound 33a]
10 to 50 |  | CCC(Nc1nc(N)nc(N)c1C#N)c1nc2ccc(F)c(F)c2c(=O)n1-c1cc(F)cc(F)c1 (single isomer, unassigned) [Compound 30a]
10 to 50 |  | CC(Nc1nc(N)nc(N)c1C#N)c1nc2cc(F)c(F)cc2c(=O)n1-c1cc(F)cc(F)c1 (single isomer, unassigned) [Compound 79a]
> 50 |  | N#Cc1c(N)nc(N)nc1NC(CC(F)(F)F)c1nc2cccc(F)c2c(=O)n1-c1cc(F)cc(F)c1 (single isomer, unassigned) [Compound 166a]
> 50 |  | COc1cc(F)cc(-n2c(C(C)Nc3nc(N)nc(N)c3C#N)nc3cccc(Cl)c3c2=O)c1C (single isomer, unassigned) [Compound 110a-1]
> 50 |  | CC(Nc1nc(N)nc(N)c1C#N)c1nc2c(C(F)(F)F)cccc2c(=O)n1-c1cc(F)cc(F)c1 (single isomer, unassigned) [Compound 34a]
10 to 50 |  | CC(Nc1nc(N)nc(N)c1C#N)c1nc2cccc(F)c2c(=O)n1-c1cc(F)cc(C#N)c1 (single isomer, unassigned) [Compound 32a]
> 50 |  | CCC(Nc1nc(N)nc(N)c1Cl)c1nc2cccc(F)c2c(=O)n1-c1cc(F)cc(F)c1 (single isomer, unassigned) [Compound 105a]
